Data as given in publication PMC8543028 (Infection and Drug Resistance, 2021).

Tests used:
[1] = system: M. tuberculosis H37Rv ATCC 27294 reference strain; format: cell-based, Mycobacterium tuberculosis
[2] = system: M. tuberculosis H37Ra; format: cell-based, Mycobacterium tuberculosis

SMILES: O=[N+]([O-])c1ccc(/C(O)=C/C(=S)S)cc1 [Compound 11e, (Z)-3-hydroxy-3-(4-nitrophenyl)-prop-2-enedithioic acid]
- inhibitory activity compared with 11a [1]: eight times that of 11a
- MIC100 in H37Ra [2]: active
